Consider one compound from patent EP2415863A1, “Mutant glucose oxidase” (B.R.A.I.N., priority 2010, dated 2012).

Assay type in all cases: biochemical
The target in assay [1] is T1, Aspergillus niger glucose oxidase (GOx) parent mutant B11, T30V, I94V, SEQ ID NO: 5 (Aspergillus niger, UniProt P13006, I116V/T52V).
T1 construct: made in house; host or cells: Saccharomyces cerevisiae (pYES2 plasmid B11 GOx)
The assay can be described thus: Kinetic constants by ABTS assay, parent GOx B11. The settings on record: as restated in the description text. From the text: (§1) For detection of GOx activity the ABTS assay was used. 2,2'-azino-bis(3-ethylbenzthiazoline-6-sulphonic acid (ABTS) is commonly used as a substrate with hydrogen peroxide for a peroxidase generating enzyme. Its use allows the reaction kinetics of peroxidases to be followed, to indirectly follow the reaction kinetics of a hydrogen peroxide-producing enzyme or to quantify the amount of hydrogen peroxide in a sample [vanGijlswijk, R.P.M., et al., Fluorochrome-labeled tyramides: Use in immunocytochemistry and fluorescence in situ hybridization. Journal of Histochemistry & Cytochemistry, 1997. 45(3): p. 375-382].
(§2) The kinetic constants were determined using the Specord 200 from (Analytik Jena, Germany) and the ABTS assay [Zhu, Z.W., et al. 2006, Making glucose oxidase fit for biofuel cell applications by directed protein evolution. Biosensors & Bioelectronics, 21(11): 2046-2051]. The measurements were performed in 1 ml of reaction volume and 1 cm light pathway cuvettes, using 2.5, 5, 10, 25, 50 and 100 mM glucose. The data were fitted using Origin 6 (OriginLab Corporation, Northampton).

Assay [2] has as its target T2, Aspergillus niger glucose oxidase (GOx) variant M12, N2Y, K13E, T30V, I94V, K152R, SEQ ID NO: 1 (Aspergillus niger, UniProt P13006, I116V/K174R/K35E/N24Y/T52V).
T2 construct: made in house; host or cells: Saccharomyces cerevisiae (pYES2)
The assay can be described thus: Kinetic constants by ABTS assay, GOx mutant M12. As to conditions: as restated in the description text.
From the text: as §1, §2

In assay [3] the target is T3, Aspergillus niger glucose oxidase (GOx), wild type, SEQ ID NO: 3 (Aspergillus niger, UniProt P13006).
T3 construct: made in house; host or cells: Saccharomyces cerevisiae (pYES2 vector)
The assay can be described thus: Kinetic constants by ABTS assay, wt GOx. As to conditions: 2.5-100 mM glucose.
From the text: as §1, §2

T1 sequence (P13006 23-605 T52V/I116V limits assumed): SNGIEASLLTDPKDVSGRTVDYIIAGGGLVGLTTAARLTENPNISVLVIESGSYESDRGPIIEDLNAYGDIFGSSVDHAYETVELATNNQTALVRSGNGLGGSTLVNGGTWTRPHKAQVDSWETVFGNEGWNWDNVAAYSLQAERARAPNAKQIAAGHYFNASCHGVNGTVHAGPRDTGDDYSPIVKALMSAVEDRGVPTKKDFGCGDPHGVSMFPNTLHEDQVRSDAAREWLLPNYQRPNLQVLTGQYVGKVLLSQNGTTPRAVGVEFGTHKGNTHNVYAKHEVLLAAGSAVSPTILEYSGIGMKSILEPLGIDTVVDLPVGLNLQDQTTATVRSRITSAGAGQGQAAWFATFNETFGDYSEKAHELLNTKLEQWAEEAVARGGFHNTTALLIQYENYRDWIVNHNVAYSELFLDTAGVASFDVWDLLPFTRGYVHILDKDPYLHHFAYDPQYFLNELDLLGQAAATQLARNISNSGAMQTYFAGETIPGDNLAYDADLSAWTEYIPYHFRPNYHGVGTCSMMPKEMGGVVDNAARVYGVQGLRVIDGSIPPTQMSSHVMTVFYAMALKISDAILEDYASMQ
T2 sequence (P13006 23-605 N24Y/K35E/T52V/I116V/K174R limits assumed): as the sequence (P13006 23-605 T52V/I116V limits assumed) above, with N2Y, K13E, K152R counted along it
T3 sequence (P13006 23-605 limits assumed): as the sequence (P13006 23-605 T52V/I116V limits assumed) above, with V30T, V94I counted along it

`OC[C@H]1OC(O)[C@H](O)[C@@H](O)[C@@H]1O` (stereo partly drawn) [glucose]: the kcat is 80 s' in assay [1], 150 s⁻¹ in assay [2] and 54.8 s' in assay [3].
